What is called EC50 is the concentration that produces a half-maximal response. One may read the CC50 as the concentration at which the toxic effect on the cells reaches its halfway point. As usually defined, the IC50 is the concentration at which inhibition is half-maximal. By AC50 is commonly meant the concentration at which the activity in the assay is half-maximal.

We go through 24 compounds from ChEMBL document CHEMBL1201862, “PubChem BioAssay data set” (2004).

The source made the active and inactive calls.

Assay [1] in a line: growth suppression of beta-catenin-knockout colon cells, dose response, cell-based, HCT116, human colon tumor (AID 1045).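 Also: HCT116 colon tumor cells with beta catenin knocked out; cells exposed to compound for 60 hours.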 Type of assay: functional.
Assay [2] in a line: growth suppression of PTEN-null colon cells, dose response, cell-based, HCT116 PTEN knockout (AID 1047).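 Also: HCT116 colon tumor cells with PTEN knocked out; cells exposed to compound for 60 hours before readout; potency for loss of cell viability measured by luminescence.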 It is filed as functional.
Another assay deals with Vero. The experiment in a line: cells. Particulars: Chlorocebus sabaeus, Vero. Type of assay: functional, Chlorocebus sabaeus.
Assay [3] is described as follows: Luminescence Cell-Based Dose Response HTS to Identify Activators of Luciferase Translation or Activity in H4 […] Cells. [Related pubchem assays: 1829 (Project Summary), 1814 (Primary HTS)]. It is filed as functional.
The next assay has as its system H4. The experiment in a line: Luminescence Cell-Based Dose Response HTS to Identify Activators of 5'UTR Stem-Loop Driven Prion Protein mRNA Translation in H4 Neuroglioblastoma Cells. [Related pubchem assays: 1829 (Project Summary), 1814 (Primary HTS)]. Type of assay: functional. As to conditions: Homo sapiens.
Assay [4] in a line: Luminescence Cell-Based Dose Confirmation HTS to Identify Activators of 5'UTR Stem-Loop Driven Alpha-Synuclein mRNA Translation in H4 Neuroglioblastoma Cells. [Related pubchem assays: 1829 (Project Summary), 1814 (Primary HTS)]. Type of assay: functional.
Assay [5] has as its target T1, Zinc finger protein mex-5 (Caenorhabditis elegans, UniProt Q9XUB2).
T1 sequence (Q9XUB2 whole entry): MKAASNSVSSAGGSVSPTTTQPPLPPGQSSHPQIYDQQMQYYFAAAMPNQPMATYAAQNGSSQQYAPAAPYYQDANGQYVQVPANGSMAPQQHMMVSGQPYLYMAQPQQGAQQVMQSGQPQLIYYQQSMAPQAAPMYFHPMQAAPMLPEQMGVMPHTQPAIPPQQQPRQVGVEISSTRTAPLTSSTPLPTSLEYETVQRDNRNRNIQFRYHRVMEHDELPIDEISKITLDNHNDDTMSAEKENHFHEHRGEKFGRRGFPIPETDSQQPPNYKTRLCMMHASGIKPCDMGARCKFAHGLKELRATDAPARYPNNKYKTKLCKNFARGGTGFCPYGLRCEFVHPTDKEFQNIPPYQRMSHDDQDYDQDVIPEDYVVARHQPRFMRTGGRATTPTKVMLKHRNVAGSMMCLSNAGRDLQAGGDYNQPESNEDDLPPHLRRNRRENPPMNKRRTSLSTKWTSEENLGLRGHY
Briefly: MEX-5/TCR-2 RNA interaction inhibitors, dose response, biochemical, C. elegans, fluorescence polarization (AID 1960).

Assay [6] addresses T2, RNA-binding protein pos-1 (Caenorhabditis elegans, UniProt G5EF15).
T2 sequence (G5EF15 whole entry): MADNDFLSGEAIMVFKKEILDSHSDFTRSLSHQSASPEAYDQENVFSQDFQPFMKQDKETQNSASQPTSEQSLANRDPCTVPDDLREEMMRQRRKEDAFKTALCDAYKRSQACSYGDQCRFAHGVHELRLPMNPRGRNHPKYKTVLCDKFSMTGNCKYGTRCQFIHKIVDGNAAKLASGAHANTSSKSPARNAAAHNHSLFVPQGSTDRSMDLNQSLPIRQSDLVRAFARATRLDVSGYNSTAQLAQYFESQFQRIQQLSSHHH
The experiment in a line: inhibitors of POS-1/mex-3 RNA binding, dose response, biochemical, fluorescence polarization (AID 1964). (Fluorescence polarisation rises when a labelled molecule tumbles more slowly, as on binding a larger partner.)

The target in another assay is Genome polyprotein (dengue virus type 2, UniProt P29990). The experiment in a line: Dengue-2 NS5 methyltransferase inhibitors, primary screen, biochemical, confirmation dose response (AID 588689). It is filed as functional.
Sequence of Genome polyprotein (P29990 2492-3391 limits assumed): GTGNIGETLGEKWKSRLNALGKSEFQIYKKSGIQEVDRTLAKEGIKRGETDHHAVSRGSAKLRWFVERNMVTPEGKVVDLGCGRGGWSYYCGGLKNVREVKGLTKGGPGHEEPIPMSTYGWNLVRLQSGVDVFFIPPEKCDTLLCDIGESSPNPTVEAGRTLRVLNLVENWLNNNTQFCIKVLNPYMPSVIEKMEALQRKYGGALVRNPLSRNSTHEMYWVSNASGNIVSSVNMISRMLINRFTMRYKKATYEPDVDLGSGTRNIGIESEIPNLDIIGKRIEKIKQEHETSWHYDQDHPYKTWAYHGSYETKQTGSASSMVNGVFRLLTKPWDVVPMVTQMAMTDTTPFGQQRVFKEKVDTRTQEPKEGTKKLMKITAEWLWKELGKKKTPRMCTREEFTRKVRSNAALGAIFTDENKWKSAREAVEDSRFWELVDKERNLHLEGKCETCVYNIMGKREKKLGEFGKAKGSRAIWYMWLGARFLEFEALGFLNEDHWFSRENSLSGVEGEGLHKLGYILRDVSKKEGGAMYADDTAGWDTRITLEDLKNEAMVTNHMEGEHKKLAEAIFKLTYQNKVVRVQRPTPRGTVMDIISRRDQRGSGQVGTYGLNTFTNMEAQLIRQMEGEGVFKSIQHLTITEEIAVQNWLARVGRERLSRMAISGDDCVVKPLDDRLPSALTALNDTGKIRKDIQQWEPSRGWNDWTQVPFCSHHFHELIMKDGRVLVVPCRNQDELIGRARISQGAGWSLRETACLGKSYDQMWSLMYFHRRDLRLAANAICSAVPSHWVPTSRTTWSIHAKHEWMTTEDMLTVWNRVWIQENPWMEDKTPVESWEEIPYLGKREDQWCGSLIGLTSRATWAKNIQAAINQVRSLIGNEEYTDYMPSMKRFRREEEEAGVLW
Assay [7] can be described thus: inhibitors of clade B AD8 Env fusion, dose response, cell-based, cherry-pick (AID 652062).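 Also: luciferase signal from cell-cell fusion driven by HIV-1 clade B AD8 Env; potency is for inhibitors of fusion seen as a drop in luminescence.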 Type of assay: functional.
A further assay relates to INS1. The experiment in a line: beta cell apoptosis inhibitors, cytokine rescue, dose response, luminescence, retest (AID 449756).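 Also: cell death triggered by IL-1 beta plus TNF-alpha plus IFN-gamma mixture; protective hits raise ATP signal compared with cytokine alone wells.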 It is filed as functional, cell-based. Particulars: Rattus norvegicus.
A further assay deals with Cytochrome P450 2C19 (Homo sapiens, UniProt P33261). The experiment in a line: Cytochrome panel assay with activity outcomes. Panel member name: p450-cyp2c19 Compounds with AC50 equal or less than 10 uM are considered active. As to conditions: read-out: AC50. Type of assay: functional.
Sequence of Cytochrome P450 2C19 (P33261 whole entry): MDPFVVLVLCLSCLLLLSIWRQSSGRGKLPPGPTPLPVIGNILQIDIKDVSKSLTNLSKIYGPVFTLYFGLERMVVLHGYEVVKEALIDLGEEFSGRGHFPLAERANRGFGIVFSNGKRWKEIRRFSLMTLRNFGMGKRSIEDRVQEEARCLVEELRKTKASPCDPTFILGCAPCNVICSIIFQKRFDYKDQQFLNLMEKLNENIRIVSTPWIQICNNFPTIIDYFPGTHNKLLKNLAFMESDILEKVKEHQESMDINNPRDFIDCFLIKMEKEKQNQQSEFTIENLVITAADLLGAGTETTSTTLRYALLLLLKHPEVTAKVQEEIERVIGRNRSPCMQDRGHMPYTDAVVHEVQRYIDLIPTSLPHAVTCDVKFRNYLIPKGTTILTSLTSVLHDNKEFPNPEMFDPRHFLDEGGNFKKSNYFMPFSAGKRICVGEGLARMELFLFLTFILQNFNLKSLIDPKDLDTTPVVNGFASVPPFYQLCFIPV
The nature of assay [8]: cytotoxicity toward NIH3T3 fibroblasts, dose response, counter-screen, cell-based, ATP luminescence, mouse fibroblasts (AID 2010).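 Also: cells exposed to compound for about 90 hours before reading.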 Type of assay: functional. (Counterscreens check selectivity or assay interference.)
Assay [9] in a line: inhibitors of intracellular T. cruzi replication, confirmation, NIH3T3 host cells, beta-gal luminescence (AID 2044).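 Also: intracellular parasites grown in NIH/3T3 mouse fibroblasts as host cells; luminescent beta-galactosidase reporter signal from transgenic T. cruzi replicating inside host cells; inhibitors lower the luminescence signal.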 Type of assay: functional, cell-based.
The target of assay [10] is T3, Heat shock factor protein 1 (Mus musculus, UniProt P38532).
T3 sequence (P38532 whole entry): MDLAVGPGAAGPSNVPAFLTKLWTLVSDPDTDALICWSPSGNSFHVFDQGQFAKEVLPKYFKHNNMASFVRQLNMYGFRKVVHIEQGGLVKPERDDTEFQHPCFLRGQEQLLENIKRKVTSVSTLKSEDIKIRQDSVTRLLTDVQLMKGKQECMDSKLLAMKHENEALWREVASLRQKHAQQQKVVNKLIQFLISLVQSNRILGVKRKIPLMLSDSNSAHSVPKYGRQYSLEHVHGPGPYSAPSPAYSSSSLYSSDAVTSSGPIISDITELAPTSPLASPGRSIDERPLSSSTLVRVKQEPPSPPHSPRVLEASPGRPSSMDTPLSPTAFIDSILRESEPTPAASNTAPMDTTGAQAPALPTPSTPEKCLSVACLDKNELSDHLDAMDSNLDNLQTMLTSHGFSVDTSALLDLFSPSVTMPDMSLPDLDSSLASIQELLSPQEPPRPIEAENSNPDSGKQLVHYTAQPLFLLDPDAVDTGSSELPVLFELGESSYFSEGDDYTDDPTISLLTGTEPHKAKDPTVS
Briefly: inhibition of MG132-induced HSE-luciferase signal, confirmation, cell-based, NIH3T3, luminescence, dose retest (AID 2382).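 Also: NIH3T3 fibroblasts with HSF1-driven luciferase reporter stressed by proteasome inhibitor MG132; luminescence from HSF1-driven luciferase expression after 8 hours of MG132 stress.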 It is filed as functional.

For `O=C(Nc1ccc(F)cc1)c1nc[nH]c1C(=O)Nc1ccccc1[N+](=O)[O-]`, the EC50 in [1] was 4.18 µM (active); in assay [2], 3.08 µM (active).
`CCN1CCN(c2cc(C)c3cc(NC(=O)c4cccc(OC)c4)ccc3n2)CC1`: in the assay with Vero, the 50% cytotoxic concentration (CC50) is > 25 µM (active). The figures for the concentration giving a half-maximal response (EC50) (in assay [3]; in the assay with H4; in [4]) were 16 µM (active), 17.9 µM (active) and 13.5 µM (active), respectively.
Regarding `Nc1c(C(=O)NCc2ccc(F)cc2)c2nc3ccccc3nc2n1CCCN1CCOCC1`, the 50% effective concentration (EC50) is 18.9 µM (active) in [1] and 21.5 µM (active) in assay [2].
Taken in the same sequence, the figures for `O=C(CCN1C(=O)C2C3C=CC(C4CC34)C2C1=O)Oc1cccc2cccnc12` (stereo unspecified) were 16.7 µM (active) and 18.8 µM (active).
Turning to `CCn1nccc1C(=O)Nc1ccc(S(=O)(=O)NC23CC4CC(CC(C4)C2)C3)cc1`, the EC50 is 27.9 µM (active) in [1] and 24.3 µM (active) in [2].
`O=C(O)c1ccccc1-n1cccc1C(=O)O`: the EC50 in assay [5] and in [6] was > 300 µM (not active) throughout.
`COC1C=COC2(C)Oc3c(C)c(O)c4c(O)c(c(CN5CCN(C)CC5)c(O)c4c3C2=O)NC(=O)C(C)=CC=CC(C)C(O)C(C)C(O)C(C)C(OC(C)=O)C1C` (stereo unspecified): the IC50 at Genome polyprotein is 96.6 µM (active).
With `O=C(C[C@H]1C[C@H]2c3cc(NC(=O)C4CCC4)ccc3O[C@H]2[C@H](CO)O1)NCc1ccc2c(c1)OCO2`, the AC50 in assay [7] was 4.08 µM (active).
Take `COc1ccc(CNCCC(c2ccc(OC(C)C)cc2)C(C)C)cc1OC` (stereo unspecified): the AC50 in the assay on INS1 is 12.7 µM (active); at Cytochrome P450 2C19, 10 µM (inconclusive). For the same compound, the EC50 in assay [1] is 10.7 µM (active); in assay [8], 9.8 µM (active); in assay [2] it was 13 µM (active); in [9], 0.416 µM (active).
Consider `O=c1c2ccccc2nc(CSc2[nH]cnc3ncnc2-3)n1-c1ccccc1`, for which the concentration giving a half-maximal response (EC50) was 28.9 µM (active) in assay [1] and 14.9 µM (active) in assay [2].
As for `COC(=O)CCC(=O)OC1(C)C(=O)C=C2C=C(C3CC3)N(c3ccc(CO)cc3)C=C2C1=O` (stereo unspecified), the results for the concentration for a half-maximal effect (EC50) in assay [5] and in [6] were 23.5 µM (active) and 25.5 µM (active), respectively.
In the case of `Cc1ccc(N2C(=O)NC(=O)/C(=C/c3cnn(-c4ccc(C)cc4)c3)C2=O)cc1`, the results for the EC50 in assay [5], in [6] and in assay [10] were 67.5 µM (active), > 300 µM (not active) and > 195 µM (not active), respectively.
With `Cc1cc([N+](=O)[O-])cc2c1NCC1CC=CC21` (stereo unspecified), the EC50 in assay [5] and in assay [6] was > 300 µM (not active) in each case.
`Cc1noc(/C=C/c2cccnc2)c1[N+](=O)[O-]`: the CC50 in the assay on Vero was 17.3 µM (active). Besides, the EC50 is 18.4 µM (active) in [8] and 2.34 µM (active) in assay [9].
Turning to `CCc1ccc(Nc2ccc(C(=O)O)cc2[N+](=O)[O-])cc1`, at Genome polyprotein, the 50% inhibitory concentration (IC50) is > 100 µM (active).
`O=C1c2cccc3c([N+](=O)[O-])ccc(c23)C(=O)N1c1nccs1`: the results for the concentration for a half-maximal effect (EC50) in [1] and in assay [2] were 11.9 µM (active) and 21.6 µM (active), respectively.
Turning to `CN1CCN(C(=O)CCN2C(=O)/C(=C\c3ccc(Cl)cc3)SC2=S)CC1`, the CC50 in the assay on Vero was 15.8 µM (active).
As to `O=C(Nc1cccn(Cc2c(Cl)cccc2Cl)c1=O)c1ccc(Cl)cc1`, the AC50 in assay [7] was 8.74 µM (active).
In the case of `COc1cccc(/C=C2\SC(=S)N(C(C(=O)O)c3ccccc3)C2=O)c1OC` (stereo unspecified), the IC50 on Genome polyprotein was 49.7 µM (active).
For `O=C1NC(=O)C(=Cc2c(Cl)cccc2Cl)C(=O)N1`, at Genome polyprotein, the IC50 is 43.4 µM (active).
In the case of `COCCn1c(N)c(NCc2ccccc2)c(=O)[nH]c1=O`, the EC50 was 3.03 µM (active) in [5] and 5.47 µM (inconclusive) in assay [6].
For `Cc1ccc(NCc2nnc(SCC(=O)Nc3ncc(C)s3)n2Cc2ccco2)c(C)c1`, the EC50 in assay [1] was 23.8 µM (active); in assay [2], 23.3 µM (active).
Turning to `O=C1CNC(=O)/C1=C/c1ccc(Br)cc1`, the IC50 on Genome polyprotein is > 100 µM (active).
Take `Cc1n[nH]c(C)c1S(=O)(=O)N1CCCC(C(=O)Nc2ccc(Br)cc2)C1` (stereo unspecified): the EC50 in [5] was > 300 µM (not active); in assay [3], > 120 µM (not active); in [6], > 300 µM (not active); with H4, > 120 µM (not active); in assay [4], > 120 µM (not active).
